This note sets out measurements from BindingDB's records for doi:10.1021/acs.jmedchem.6b00993 (Purdue University, 2016).

In the experiment the target is Serine/threonine-protein phosphatase 5 (Homo sapiens) (UniProt P53041). As to the kind of experiment: Inhibition of His-tagged PP5 (unknown origin) expressed in Escherichia coli BL21 cells using para-nitrophenyl phosphate as substrate incubated for 5 to 10 mins by microplate reader based spectrophotometric analysis.
Sequence of Serine/threonine-protein phosphatase 5 (Homo sapiens) (P53041 whole entry, looked up): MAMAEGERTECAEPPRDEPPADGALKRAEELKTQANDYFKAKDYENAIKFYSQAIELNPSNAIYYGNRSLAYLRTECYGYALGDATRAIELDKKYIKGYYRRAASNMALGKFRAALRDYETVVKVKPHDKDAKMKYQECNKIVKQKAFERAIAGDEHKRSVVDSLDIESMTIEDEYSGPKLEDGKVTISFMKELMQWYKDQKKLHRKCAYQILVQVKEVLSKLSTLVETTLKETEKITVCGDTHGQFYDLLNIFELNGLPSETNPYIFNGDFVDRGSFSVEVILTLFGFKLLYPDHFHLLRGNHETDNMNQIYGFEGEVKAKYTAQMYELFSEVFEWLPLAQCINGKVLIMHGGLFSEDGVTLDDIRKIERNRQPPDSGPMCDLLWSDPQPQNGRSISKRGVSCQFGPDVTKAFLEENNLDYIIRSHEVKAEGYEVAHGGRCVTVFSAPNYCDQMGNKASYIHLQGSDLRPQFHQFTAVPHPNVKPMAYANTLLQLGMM

Turning to `O=C(Nc1nc2ccccc2s1)C(c1ccccc1)S(=O)(=O)O` (centres undefined), the IC50 (usually the concentration needed to halve the response being measured) is above 200 µM.

With `O=C(Nc1cnc2ccccc2c1)C(c1ccccc1)S(=O)(=O)O` (centres undefined), the IC50 is above 200 µM.

`O=C(Nc1ccc(N2CCOCC2)cc1)C(c1ccccc1)S(=O)(=O)O` (centres undefined) had an IC50 above 200 µM.

`O=C(Nc1ccc2nc(C(F)(F)F)[nH]c2c1)C(c1ccccc1)S(=O)(=O)O` (centres undefined): the IC50 is above 200 µM.
